Source: patent publication US20050080140A1, “Method for treating or preventing inflammatory disorders” (AnGes MG, Inc., priority 2003, published 2005)
“Also recorded” adds a separate entry of the source.

What was measured:
IL-13 gene = test: RT-PCR analysis of IL-13 mRNA; format: cell-based, human; conditions: HUVEC, 10 μM cPGI, 12 h, FIG. 1A
Protocol: (§1) For analysis of IL-13, human vascular endothelial cells (1.2×10^4 cells/cm^2) were stimulated with cPGI (10 μM) for 12 h, and total RNA was prepared from stimulated cells with Isogen (Nippon Gene). For analysis of COX-2, human vascular endothelial cells (1.2×10^4 cells/cm^2) were pretreated with TNF-α (1 ng/ml) and IL-1b (20 ng/ml) for 1 h, and then treated with cPGI (0, 10 μM), anti-human IL-13 monoclonal antibody (0, 0.5 μg/ml) and control IgG (0, 0.5 μg/ml) for 12 h to prepare total RNA. The total RNA (0.5 μg) was used for analysis by SuperScript RT-PCR system (Invitrogen) according to the manufacturer's instructions. The oligonucleotide primers used were IL-13-s (5′-[…]-3′ (SEQ ID NO: 6); sense) and IL-13-as (5′-[…]-3′ (SEQ ID NO: 7); antisense) for human IL-13, β-actin-s (5′-[…]-3′ (SEQ ID NO: 8); sense) and β-actin-as (5′-[…]-3′ (SEQ ID NO: 9); antisense) for human β-actin, and COX-2-s (5′-[…]-3′ (SEQ ID NO: 10); sense) and COX-2-as (5′-[…]-3′ (SEQ ID NO: 11); antisense) for human COX-2. For each PCR amplification, 1 μl of cDNA was used in a 50 μl reaction. Reverse transcription-PCR (RT-PCR) for β-actin (25 cycles) was used as an internal control for mRNA abundance. For IL-13 and COX-2 genes, the number of cycles ranged from 25 to 45. […] Samples were normalized based on equivalent expression of β-actin.

IL-13 = IL-13 ELISA of culture medium of human vascular endothelial cells; format: cell-based; conditions: 24 h; for endogenous IL-13 expression in PGI2-deprived cells: HUVEC treated with PGIS siRNA, cPGI 10 μM, FIG. 6C
Protocol: Human vascular endothelial cells (1.2×10^4 cells/cm^2) were cultured in EGM-2 containing 2% FBS and several concentrations of cPGI with or without TNF-α for 24 h. Incubation media were collected and stored at −80° C. before assay. Amounts of IL-13 were measured with human IL-13 ELISA system (Amersham Pharmacia Biotech, Buckinghamshire, UK) and amounts of PGI2 were measured as the amounts of 6-keto-PGI1α, a stable metabolite of PGI2, with 6-keto-PGI1α ELISA kit (Cayman Chemical Co., Ann Arbor, Mich.) according to the manufacturers' instructions.
siRNA duplexes with the following sense and antisense sequences were made: PGIS1, 5′-[…]-3′ (SEQ ID NO: 12; sense) and 5′-[…]-3′ (SEQ ID NO: 13; antisense); PGIS2, 5′-[…]-3′ (SEQ ID NO: 14; sense) and 5′-[…]-3′ (SEQ ID NO: 15; antisense); PGIS3, 5′-[…]-3′ (SEQ ID NO: 16; sense) and 5′-[…] (SEQ ID NO: 17; antisense); and PGIS4, 5′-[…]-3′ (SEQ ID NO:, 18; sense) and 5′-[…]-3′ (SEQ ID NO: 19; antisense). siRNAs were synthesized and annealed by Dharmacon Research Inc. (Lafayette, CO). Control non-silencing siRNA, a duplex of sense (5′-UUCUCCGAACGUGUCACGUdTdT-3′; SEQ ID NO: 20) and antisense (5′-ACGUGACACGUUCGGAGAAdTdT-3′; SEQ ID NO: 21) sequences, was purchase from Qiagen (Valencia, Calif.). The cells were initially transfected with 200 pmol per well of the annealed RNA mixture or the same amount of control siRNA using LipofectAMINE2000 (Invitrogen), and 12 h later secondly transfected with the same amount of siRNAs using HVJ-liposome transfection kit (GenomeONE; Ishihara Sangyo, Osaka, Japan) according to the manufacturers' instructions. The cells were retransfected with the siRNAs every 3 days using LipofectAMINE2000 and HVJ-liposome, and used for analyses 10 days after transfection. Microsomal fractions of the cells were prepared and analyzed by immunoblotting with anti-PGIS P4 polyclonal antibody as described previously (Hatae et al., J. Biol. Chem. (2001) 276: 46260-7). The cells treated with siRNAs for 10 days were cultured in fresh EGM-2 containing 2% FBS and TNF-α (0, 10 ng/ml). with or without cPGI (10 μM) for 24 h. The incubation media were collected, and amounts of 6-keto-PGI1α or IL-13 were measured with ELISA kit.

COX-2 gene = test: RT-PCR analysis of COX-2 mRNA; format: cell-based, human; conditions: HUVEC, cPGI 10 μM, 12 h, FIG. 5 lane 3
Protocol: as §1

[1] = tested on: promoter region of the human IL-13 gene; test: IL-13 promoter-luciferase reporter assay; format: cell-based; conditions: 10 μM cPGI, 24 h
From the text: Promoter sequences of human IL-13 gene containing PPRE and GATA elements were isolated from human leukocyte genomic DNA by polymerase chain reaction (PCR) with primers A (5′-[…]-3′ (SEQ ID NO: 3); sense) and D (5′-[…]-3′ (SEQ ID No: 4); antisense) for the 1.3 kbp fragment, and B (5′-[…]-3′ (SEQ ID NO: 5); sense) and D for the 0.4 kbp fragment. Each fragment was inserted into the MluI-XbaI site of pGL3-promoter vector (Promega, Madison, Wis.). Human vascular endothelial cells (1.2×10^4 cells/cm^2) were cotransfected with 0.2 μg of IL-13-luciferase reporter vector, 0.1 μg of β-galactosidase expression vector and 0.7 μg of expression vector for PPARδwt, PPARδdn, CREBwt, CREBdn or mock vector by use of TransIT LT-1. After 17 h of transfection, cells were incubated in fresh EGM-2 containing 2% FBS. After another 24 h, the cells were washed with PBS, and cultured in EGF-2 containing 2% FBS with 10 μM cPGI for 24 h to quantify luciferase and β-galactosidase activities as described previously (Hatae et al., J. Biol. Chem. (2001) 276: 46260-7). The luciferase activity of the extract was normalized to β-galactosidase activity.

[2] = 413 bp IL-13 promoter fragment, FIG. 3

For `CCCCC[C@H](O)/C=C/[C@@H]1[C@H]2C/C(=C/CCCC(=O)O)C[C@H]2C[C@H]1O` [cPGI, carbaprostacyclin], the “IL-13 mRNA expression (RT-PCR)” value (IL-13 gene) was “apparent induction”, the “endogenous IL-13 expression in PGI2-deprived cells” value (IL-13) was “significantly increased” and the “endogenous IL-13 expression in PGI2-deprived cells” value (IL-13; listed as carbaprostacyclin) was “significantly induced”. For the same compound, the “production of IL-13, exogenous cPGI added to TNF-α” value (IL-13; HUVEC, TNF-α 0-10 ng/ml with cPGI 0, 2 or 10 μM, dose-dependent, FIG. 4C) was “enhanced”, the “IL-13 protein in the culture medium (ELISA)” value (IL-13; HUVEC, cPGI 0, 1, 10 and 100 μM, FIG. 1B) was “detectable; also recorded: dose-dependent” and the “inducible expression of COX-2 (TNF-α and IL-1 induced)” value (COX-2 gene) was “significantly inhibited”. For the same compound, the “cPGI-dependent IL-13 promoter luciferase activity on coexpression of dominant negative CREB (CREBdn)” value [1, 2] was “no effect”, the “cPGI-dependent increase of IL-13 promoter luciferase activity on cotransfection of dominant negative PPARδ (PPARδdn)” value [1, 2] was “suppressed” and the “luciferase activity of reporter vector containing GATA sequences without PPREs” value ([1]; HUVEC, FIG. 2B) was “increased only weakly”. For the same compound, the “luciferase activity of reporter vectors containing the PPRE consensus region of the IL-13 promoter” value ([1]; HUVEC, FIG. 2B) was “significantly increase” and the “luciferase activity of vectors from which the PPRE consensus sequence region had been deleted” value ([1]; HUVEC, FIG. 2B) was “not increased”.
